# According to patent publication US10981911B2, “Imidazopyrrolopyridine as inhibitors of the JAK family of kinases” (Janssen Pharmaceutica NV, priority 2016, dated 2021):
# pIC50: −log10 of the molar value.
# Key:
# Type in all cases: biochemical
# JAK3-JH1JH2 = JAK3-JH1JH2 (Homo sapiens (Human), UniProt P52333); assay: Enzymatic inhibition assay (RapidFire HTMS), JAK3; details: 150 μM ATP, 40 μM substrate
# Procedure, shortened: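 JAK3 JH1JH2 reaction incubated 45 min at 25 °C, then quenched with 0.5% TFA containing 0.15 μM internal standard peptide. Phosphopeptide product measured by RapidFire C4 SPE–ESI MS (positive mode); inhibition from product decrease versus uninhibited enzyme, 11-point 1:3 or 1:4 dilutions in duplicate.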
# JAK1-JH1JH2 = JAK1-JH1JH2 (Homo sapiens (Human), UniProt P23458); assay: Enzymatic inhibition assay (RapidFire HTMS), JAK1; details: 12.5 μM ATP, 200 μM substrate; read-out: JAK1-JH2JH1 IC50
# Procedure, shortened: (§1)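 Quenched with 0.5% TFA plus internal-standard peptide; phosphorylated product quantified by RapidFire C4 SPE–ESI-MS, 11-point 1:3 or 1:4 dilutions in duplicate.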
# Tyk2-JH1JH2 = Tyk2-JH1JH2 (Homo sapiens (Human), UniProt P29597, C1142A/C936A); assay: Enzymatic inhibition assay (RapidFire HTMS), Tyk2; details: 50 μM ATP, 200 μM substrate
# Procedure, shortened: as §1
# JAK2-JH1JH2 = JAK2-JH1JH2 (Homo sapiens (Human), UniProt O60674); assay: Enzymatic inhibition assay (RapidFire HTMS), JAK2; details: 30 μM ATP, 40 μM substrate
# Text: LC/MS grade Water and Acetonitrile (ACN), were purchased from HoneyWell, Burdick & Jackson (Muskegon, Mich., USA). Dimethylsulfoxide 99.8% (DMSO) and Trifluoroacetic Acid 99.5% (TFA) were purchased from EMD Chemical (Gibbstown, N.J., USA). Adenosine triphosphate (ATP), 4-Morpholinepropanesulfonic acid (MOPS), Magnesium chloride (MgCl2), ethylenediaminetetraacetic acid (EDTA), dithiothreitol (DTT), formic acid >95% (FA) and Tween-20 were purchased from Sigma (St Louis, Mo., USA). 384-well polypropylene plates, Cat #781280 were purchased from Greiner (Monroe, N.C.), RapidFire™ cartridge A C4 Column (Agilent Technologies, Santa Clara, Calif.).
# The HTMS experiments were performed in positive ionization mode on a RapidFire 300 instrument (Agilent Technologies, Santa Clara, Calif.), coupled with an ABSiex QTrap 4000 system with an Electrospray Ionization source (RF-MS) (Concord, ON, Canada). […] The entire system was operated using the RapidFire software interfaced with Analyst software for the mass spectrometer.
# 11-point dosing series were made for each compound by serially diluting 1:3 or 1:4 in DMSO, with point 12 being a DMSO control. From the serial dilution plates, sample was transferred to a 384 wells assay plate (#781280, Greiner, Monroe, N.C.) using Labcyte Echo (Sunnyvale, Calif.), or Biosero ATS (San Diego, Calif.). The compounds were tested in duplicate. Column 12 was used for positive controls, and column 24 contained negative controls with no enzyme added. A compound from our internal collection, with inhibitory activity for JAK isoforms, was used as a reference compound. The final concentration of DMSO was ≤0.25% in a 20 μL reaction. […] The Tyk2 enzyme was pre-incubated with 2 mM ATP for 30 min prior to the reaction initiation. Immediately after the addition of the enzyme to the reaction mixture, the plate was centrifuged at 1000 rpm for 1 minute and incubated at 25° C. for 45 minutes for JAK 3 and 90 minutes for JAK1, JAK2 and Tyk2. The reaction was quenched by the addition of 20 μL of 0.5% TFA containing 0.15 μM of internal standard peptide using Multidrop Combi reagent dispenser (Thermo Scientific, Waltham, Mass.). […] After the quench, the assay plate was centrifuged at 3000 rpm for 3 minutes and sealed with pierceable aluminum foil (Cat #06644-001, Agilent) using a PlateLoc (Agilent Technologies, Santa Clara, Calif.). The plates then were transferred on to the RapidFire for the MS analysis. Compound inhibition was assessed by a decrease of the phosphorylated product levels in sample wells compared to the non-inhibited enzyme reaction.
# The sample analysis on the RapidFire was performed using a mobile phase A consisting of Water/TFA/FA (100:0.01:0.1, v/v/v), a mobile phase B consisting of ACN/Water/TFA/FA (80:20:0.01:0.1, v/v/v). […] The samples were aspirated directly from the 384 assay plate and delivered onto RF-MS microscale solid-phase C4 extraction cartridge (Type A). The undesired component such as salt, cofactor, detergent and large protein were washed out and the retained analytes (substrate, product and IS) were coeluted directly onto the ABSiex Qtrap 4000 system.
# Chain of JAK2-JH1JH2 (O60674 532-1132): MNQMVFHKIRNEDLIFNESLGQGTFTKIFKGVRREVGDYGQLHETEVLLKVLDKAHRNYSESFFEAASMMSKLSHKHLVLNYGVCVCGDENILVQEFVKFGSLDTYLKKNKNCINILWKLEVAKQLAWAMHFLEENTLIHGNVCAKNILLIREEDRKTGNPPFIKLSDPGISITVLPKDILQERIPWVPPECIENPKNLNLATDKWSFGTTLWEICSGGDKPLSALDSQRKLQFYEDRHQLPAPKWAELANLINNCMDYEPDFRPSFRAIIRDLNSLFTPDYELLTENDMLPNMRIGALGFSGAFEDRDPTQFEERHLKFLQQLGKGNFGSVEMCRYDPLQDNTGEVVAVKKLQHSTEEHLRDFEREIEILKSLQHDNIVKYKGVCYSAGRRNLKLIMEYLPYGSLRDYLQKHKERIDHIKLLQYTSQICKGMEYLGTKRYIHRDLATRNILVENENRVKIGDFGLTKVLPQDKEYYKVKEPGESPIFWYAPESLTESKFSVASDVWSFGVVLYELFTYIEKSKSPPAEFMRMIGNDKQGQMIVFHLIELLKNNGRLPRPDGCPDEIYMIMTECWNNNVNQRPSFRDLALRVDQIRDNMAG
# Chain of Tyk2-JH1JH2 (P29597 580-1182 C936A/C1142A): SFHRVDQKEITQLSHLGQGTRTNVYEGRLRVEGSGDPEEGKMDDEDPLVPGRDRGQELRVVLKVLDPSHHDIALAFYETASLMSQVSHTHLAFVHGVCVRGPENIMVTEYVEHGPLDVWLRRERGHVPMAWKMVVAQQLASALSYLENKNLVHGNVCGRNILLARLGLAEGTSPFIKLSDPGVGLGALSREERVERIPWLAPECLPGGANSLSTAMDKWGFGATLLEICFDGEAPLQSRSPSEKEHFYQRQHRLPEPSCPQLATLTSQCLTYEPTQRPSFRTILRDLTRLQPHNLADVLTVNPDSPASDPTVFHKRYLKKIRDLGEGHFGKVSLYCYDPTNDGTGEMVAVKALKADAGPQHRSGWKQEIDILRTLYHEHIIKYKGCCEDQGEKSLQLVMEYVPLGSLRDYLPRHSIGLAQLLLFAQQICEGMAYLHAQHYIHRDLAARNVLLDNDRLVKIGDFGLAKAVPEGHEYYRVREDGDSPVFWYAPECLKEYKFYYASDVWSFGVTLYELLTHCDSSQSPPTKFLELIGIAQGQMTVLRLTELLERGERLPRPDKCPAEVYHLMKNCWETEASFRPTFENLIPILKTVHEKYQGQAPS
# Chain of JAK1-JH1JH2 (P23458 574-1154): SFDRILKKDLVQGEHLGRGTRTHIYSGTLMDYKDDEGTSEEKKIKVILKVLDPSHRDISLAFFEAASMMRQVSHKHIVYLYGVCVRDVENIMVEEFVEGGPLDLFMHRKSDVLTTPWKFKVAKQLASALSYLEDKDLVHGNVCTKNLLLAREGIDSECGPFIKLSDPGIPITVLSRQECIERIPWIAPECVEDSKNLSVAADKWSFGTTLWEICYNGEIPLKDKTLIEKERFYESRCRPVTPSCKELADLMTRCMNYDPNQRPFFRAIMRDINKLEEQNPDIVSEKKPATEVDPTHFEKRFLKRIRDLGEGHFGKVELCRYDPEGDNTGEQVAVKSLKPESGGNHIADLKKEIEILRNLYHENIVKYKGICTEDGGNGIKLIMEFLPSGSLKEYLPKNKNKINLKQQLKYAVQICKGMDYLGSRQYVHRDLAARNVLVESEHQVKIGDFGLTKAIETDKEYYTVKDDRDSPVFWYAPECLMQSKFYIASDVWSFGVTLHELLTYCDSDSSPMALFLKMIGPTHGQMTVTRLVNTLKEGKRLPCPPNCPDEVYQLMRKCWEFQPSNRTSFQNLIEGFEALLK
# Chain of JAK3-JH1JH2 (P52333 512-1124): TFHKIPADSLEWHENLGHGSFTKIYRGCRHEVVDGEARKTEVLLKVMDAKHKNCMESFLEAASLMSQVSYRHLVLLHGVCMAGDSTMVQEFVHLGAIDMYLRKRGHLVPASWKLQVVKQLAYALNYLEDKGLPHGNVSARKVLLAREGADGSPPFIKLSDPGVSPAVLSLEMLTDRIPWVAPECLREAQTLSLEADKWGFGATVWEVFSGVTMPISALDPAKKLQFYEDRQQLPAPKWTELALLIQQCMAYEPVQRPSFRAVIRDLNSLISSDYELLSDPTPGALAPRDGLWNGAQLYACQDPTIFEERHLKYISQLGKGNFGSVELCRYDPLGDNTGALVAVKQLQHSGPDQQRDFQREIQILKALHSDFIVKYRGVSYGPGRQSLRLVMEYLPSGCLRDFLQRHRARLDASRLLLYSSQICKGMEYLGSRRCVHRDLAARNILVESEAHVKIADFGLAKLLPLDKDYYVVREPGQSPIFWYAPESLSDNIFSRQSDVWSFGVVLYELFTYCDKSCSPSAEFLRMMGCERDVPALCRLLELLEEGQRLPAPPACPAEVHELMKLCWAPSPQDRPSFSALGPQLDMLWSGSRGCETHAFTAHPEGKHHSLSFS
pIC50 (JAK3-JH1JH2),pIC50 (JAK1-JH1JH2),pIC50 (Tyk2-JH1JH2),pIC50 (JAK2-JH1JH2),Structure (SMILES)
6.36,9.70,8.11,7.61,"N#CC[C@H]1CC[C@H](n2c(CC(=O)N3CC[C@H](O)C3)nc3cnc4[nH]ccc4c32)CC1 [Ex. 42, 2-((1S,4r)-4-(2-(2-((S)-3-Hydroxypyrrolidin-1-yl)-2-oxoethyl)imidazo[4,5-d]pyrrolo[2,3-b]pyridin-1(6H)-yl)cyclohexyl)acetonitrile]"
7.06,9.70,8.24,8.29,"N#CC[C@H]1CC[C@H](n2c(CC(=O)NCCOc3ccncc3)nc3cnc4[nH]ccc4c32)CC1 [Ex. 43, 2-(1-((1r,4r)-4-(Cyanomethyl)cyclohexyl)-1,6-dihydroimidazo[4,5-d]pyrrolo[2,3-b]pyridin-2-yl)-N-(2-(pyridin-4-yloxy)ethyl)acetamide]"
7.28,9.70,8.22,8.27,"CC(C)(C)CNC(=O)Cc1nc2cnc3[nH]ccc3c2n1[C@H]1CC[C@H](CC#N)CC1 [Ex. 44, 2-(1-((1r,4r)-4-(Cyanomethyl)cyclohexyl)-1,6-dihydroimidazo[4,5-d]pyrrolo[2,3-b]pyridin-2-yl)-N-neopentylacetamide]"
6.74,9.70,7.91,8.21,"N#CC[C@H]1CC[C@H](n2c(CC(=O)NCc3ccc(F)cc3)nc3cnc4[nH]ccc4c32)CC1 [Ex. 45, 2-(1-((1r,4r)-4-(Cyanomethyl)cyclohexyl)-1,6-dihydroimidazo[4,5-d]pyrrolo[2,3-b]pyridin-2-yl)-N-(4-fluorobenzyl)acetamide]"
7.41,9.70,8.29,8.64,"N#CC[C@H]1CC[C@H](n2c(CC(=O)N[C@H]3CC[C@@H](O)CC3)nc3cnc4[nH]ccc4c32)CC1 [Ex. 47, 2-(1-((1r,4r)-4-(Cyanomethyl)cyclohexyl)-1,6-dihydroimidazo[4,5-d]pyrrolo[2,3-b]pyridin-2-yl)-N-((1S,4S)-4-hydroxycyclohexyl)acetamide]"
6.60,9.70,8.38,7.36,"N#CC[C@H]1CC[C@H](n2c(CC(=O)N3CCCC3)nc3cnc4[nH]ccc4c32)CC1 [Ex. 49, 2-((1r,4r)-4-(2-(2-Oxo-2-(pyrrolidin-1-yl)ethyl)imidazo[4,5-d]pyrrolo[2,3-b]pyridin-1(6H)-yl)cyclohexyl)acetonitrile]"
7.00,9.70,7.68,8.40,"N#CC[C@H]1CC[C@H](n2c(C(=O)N3CCC(O)(c4ccccc4)C3)nc3cnc4[nH]ccc4c32)CC1 (stereo partly drawn) [Ex. 50, 2-((1r,4r)-4-(2-(3-Hydroxy-3-phenylpyrrolidine-1-carbonyl)imidazo[4,5-d]pyrrolo[2,3-b]pyridin-1(6H)-yl)cyclohexyl)acetonitrile]"
6.90,9.70,8.24,8.49,"N#CC[C@H]1CC[C@H](n2c(-c3cnc(N)nc3)nc3cnc4[nH]ccc4c32)CC1 [Ex. 51, 2-((1r,4r)-4-(2-(2-Aminopyrimidin-5-yl)imidazo[4,5-d]pyrrolo[2,3-b]pyridin-1(6H)-yl)cyclohexyl)acetonitrile]"
7.21,9.70,8.05,8.49,"N#CC[C@H]1CC[C@H](n2c(-c3ccnc(N)n3)nc3cnc4[nH]ccc4c32)CC1 [Ex. 53, 2-((1r,4r)-4-(2-(2-Aminopyrimidin-4-yl)imidazo[4,5-d]pyrrolo[2,3-b]pyridin-1(6H)-yl)cyclohexyl)acetonitrile]"
7.38,9.70,8.38,8.68,"N#CC[C@H]1CC[C@H](n2c(CC(=O)NC34CCC(C(N)=O)(CC3)C4)nc3cnc4[nH]ccc4c32)CC1 [Ex. 54, 4-(2-(1-((1r,4r)-4-(Cyanomethyl)cyclohexyl)-1,6-dihydroimidazo[4,5-d]pyrrolo[2,3-b]pyridin-2-yl)acetamido)bicyclo[2.2.1]heptane-1-carboxamide]"
7.48,9.70,8.14,8.72,"N#CC[C@H]1CC[C@H](n2c(-c3ncc[nH]3)nc3cnc4[nH]ccc4c32)CC1 [Ex. 56, 2-((1r,4r)-4-(2-(1H-Imidazol-2-yl)imidazo[4,5-d]pyrrolo[2,3-b]pyridin-1(6H)-yl)cyclohexyl)acetonitrile]"
7.16,9.70,8.47,8.25,"N#CC[C@H]1CC[C@H](n2c(CC(=O)NCC(F)(F)F)nc3cnc4[nH]ccc4c32)CC1 [Ex. 57, 2-(1-((1r,4r)-4-(Cyanomethyl)cyclohexyl)-1,6-dihydroimidazo[4,5-d]pyrrolo[2,3-b]pyridin-2-yl)-N-(2,2,2-trifluoroethyl)acetamide]"
7.50,9.52,8.48,8.85,"N#CC[C@H]1CC[C@H](n2c(CC(=O)NC34CCC(C(N)=O)(CC3)CC4)nc3cnc4[nH]ccc4c32)CC1 [Ex. 58, 4-(2-(1-((1r,4r)-4-(Cyanomethyl)cyclohexyl)-1,6-dihydroimidazo[4,5-d]pyrrolo[2,3-b]pyridin-2-yl)acetamido)bicyclo[2.2.2]octane-1-carboxamide]"
6.91,9.52,8.14,8.17,"CC(C)(O)CCNC(=O)Cc1nc2cnc3[nH]ccc3c2n1[C@H]1CC[C@H](CC#N)CC1 [Ex. 59, 2-(1-((1r,4r)-4-(Cyanomethyl)cyclohexyl)-1,6-dihydroimidazo[4,5-d]pyrrolo[2,3-b]pyridin-2-yl)-N-(3-hydroxy-3-methylbutyl)acetamide]"
7.14,9.52,8.47,8.77,"N#CC[C@H]1CC[C@H](n2c(-c3cc[nH]n3)nc3cnc4[nH]ccc4c32)CC1 [Ex. 60, 2-((1r,4r)-4-(2-(1H-Pyrazol-3-yl)imidazo[4,5-d]pyrrolo[2,3-b]pyridin-1(6H)-yl)cyclohexyl)acetonitrile]"
6.66,9.52,8.20,7.59,"CC(C)/C(=N/O)NCc1nc2cnc3[nH]ccc3c2n1[C@H]1CC[C@H](CC#N)CC1 [Ex. 61, (EZ)—N-((1-((1r,4r)-4-(cyanomethyl)cyclohexyl)-1,6-dihydroimidazo[4,5-d]pyrrolo[2,3-b]pyridin-2-yl)methyl)-N-hydroxyisobutyrimidamide]"
7.51,9.52,8.59,8.68,"CC(C)CN1CCC(NC(=O)Cc2nc3cnc4[nH]ccc4c3n2[C@H]2CC[C@H](CC#N)CC2)CC1 [Ex. 62, 2-(1-((1r,4r)-4-(Cyanomethyl)cyclohexyl)-1,6-dihydroimidazo[4,5-d]pyrrolo[2,3-b]pyridin-2-yl)-N-(1-isobutylpiperidin-4-yl)acetamide]"

Structure (SMILES),pIC50 (JAK3-JH1JH2),pIC50 (JAK1-JH1JH2),pIC50 (Tyk2-JH1JH2),pIC50 (JAK2-JH1JH2)
"N#CC[C@H]1CC[C@H](n2c(CNC(=O)Oc3ccccc3)nc3cnc4[nH]ccc4c32)CC1 [Ex. 46, Phenyl ((1-((1r,4r)-4-(cyanomethyl)cyclohexyl)-1,6-dihydroimidazo[4,5-d]pyrrolo[2,3-b]pyridin-2-yl)methyl)carbamate]",6.67,9.70,8.26,7.84
